The values below come from patent US20110143948A1, “MOLECULAR SIGNATURES AND BIOMARKERS ASSOCIATED WITH MELANOMA AND METHODS OF USE THEREOF” (priority 2008, published 2011).

The data set has as its system ncRNAs (SEQ ID NO 28-89). Kind of data set: ncRNA arrays of melanocytes, keratinocytes, normal skin, melanoma cell lines and patient samples. Set-up: species or system human. The note with it: for ncRNA array expression, patient 2: melanoma patient 2 sample compared to normal skin; for ncRNA array expression, patient 3: melanoma patient 3 sample compared to normal skin; for ncRNA array expression, patient 4: melanoma patient 4 sample compared to normal skin; for ncRNA array expression, patient 5: melanoma patient 5 sample compared to normal skin; for ncRNA array expression, patient 6: melanoma patient 6 sample compared to normal skin; for ncRNA array expression, patient 7: melanoma patient 7 sample compared to normal skin; for ncRNA array expression, patient 8: melanoma patient 8 sample compared to normal skin; for ncRNA array expression, patient 9: melanoma patient 9 sample compared to normal skin; for ncRNA array expression, patient 10: melanoma patient 10 sample compared to normal skin; for ncRNA array expression, patient 19: melanoma patient 19 sample compared to normal skin; for ncRNA array expression, patient 20: melanoma patient 20 sample compared to normal skin; for ncRNA array expression, patient 21: melanoma patient 21 sample compared to normal skin; for ncRNA array expression, patient 22: melanoma patient 22 sample compared to normal skin; for ncRNA array expression, patient 23: melanoma patient 23 sample compared to normal skin; for ncRNA array expression, patient 24: melanoma patient 24 sample compared to normal skin; for ncRNA array expression, patient 25: melanoma patient 25 sample compared to normal skin; for ncRNA array expression, patient 26: melanoma patient 26 sample compared to normal skin; for ncRNA array expression, patient 27: melanoma patient 27 sample compared to normal skin; for ncRNA array expression, patient 28: melanoma patient 28 sample compared to normal skin; for ncRNA array expression, patient 29: melanoma patient 29 sample compared to normal skin; for ncRNA array expression, patient 30: melanoma patient 30 sample compared to normal skin. The method in brief:
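Total RNA from melanocytes, keratinocytes, normal human skin, melanoma cell lines and melanoma patient samples was profiled on an array of >10,000 putative (>200 nt) human and mouse ncRNAs plus RefSeq mRNA probes. Expression was compared with melanocytes or normal skin, keratinocyte signatures were subtracted, and hits were validated by qRT-PCR and Northern blot.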

On to “SEQ ID NO 57 (TTGTTGTTTTGGGAGATACCCTGTTTAGCCTGAAAGGATTGAGATACTGTAATTGCTATG; listed as DNA, chemistry not given here; listed as Homo sapiens)”, for which the “ncRNA array expression, patient 2” value stood at 1.808; the “ncRNA array expression, patient 3” value turned out to be 2.081; the “ncRNA array expression, patient 4” value is 1.613; the “ncRNA array expression, patient 5” value turned out to be 2.211. Besides, the “ncRNA array expression, patient 6” value is reported as 1.68; the “ncRNA array expression, patient 7” value is 0.6099; the “ncRNA array expression, patient 8” value was found to be 1.985; the “ncRNA array expression, patient 9” value amounted to 0.645. Also, the “ncRNA array expression, patient 10” value is 0.5023; the “ncRNA array expression, patient 19” value turned out to be 0.2628; the “ncRNA array expression, patient 20” value came out at 0.1922; the “ncRNA array expression, patient 21” value turned out to be 0.9386. In addition, the “ncRNA array expression, patient 22” value was found to be 1.473; the “ncRNA array expression, patient 23” value was 1.122; the “ncRNA array expression, patient 24” value came out at 0.5436; the “ncRNA array expression, patient 25” value worked out at 1.559. Besides, the “ncRNA array expression, patient 26” value is reported as 1.989; the “ncRNA array expression, patient 27” value is 1.446; the “ncRNA array expression, patient 28” value came out at 1.064; the “ncRNA array expression, patient 29” value was determined as 0.4459. For the same substance, the “ncRNA array expression, patient 30” value was −0.5305.
For “SEQ ID NO 58 (ATTTATTTGACTCTAAAATGACAATATAACAACTATAAGGAATTGATATGATGTCCTTAC; listed as DNA, chemistry not given here; listed as Homo sapiens)”, the “ncRNA array expression, patient 2” value was −1.675; the “ncRNA array expression, patient 3” value is recorded as −1.723; the “ncRNA array expression, patient 4” value was −0.4325; the “ncRNA array expression, patient 5” value is on record as −1.707. For the same substance, the “ncRNA array expression, patient 6” value was −1.802; the “ncRNA array expression, patient 7” value is reported as −1.2619; the “ncRNA array expression, patient 8” value is on record as −1.825; the “ncRNA array expression, patient 9” value is reported as −1.569. In addition, the “ncRNA array expression, patient 10” value was −1.223; the “ncRNA array expression, patient 19” value is given as −1.471; the “ncRNA array expression, patient 20” value is listed as −1.134; the “ncRNA array expression, patient 21” value is recorded as −1.719. Moreover, the “ncRNA array expression, patient 22” value is given as −1.28; the “ncRNA array expression, patient 23” value is −1.756; the “ncRNA array expression, patient 24” value is on record as −1.757; the “ncRNA array expression, patient 25” value was −1.52. Besides, the “ncRNA array expression, patient 26” value is −1.463; the “ncRNA array expression, patient 27” value is given as −1.595; the “ncRNA array expression, patient 28” value is −1.708; the “ncRNA array expression, patient 29” value was −1.543. The “ncRNA array expression, patient 30” value is recorded as −1.631.
Consider “SEQ ID NO 59 (TGTGCAGCAGTATCAAAGGTCCTTAAATTCTCAACAATGAAGGAAAAACAAAAACCCATT; listed as DNA, chemistry not given here; listed as Homo sapiens)”, for which the “ncRNA array expression, patient 2” value was −0.9339; the “ncRNA array expression, patient 3” value is on record as −1.02; the “ncRNA array expression, patient 4” value is recorded as −1.168; the “ncRNA array expression, patient 5” value was −1.255. The “ncRNA array expression, patient 6” value is on record as −1.212; the “ncRNA array expression, patient 7” value is given as −0.9325; the “ncRNA array expression, patient 8” value was −0.9937; the “ncRNA array expression, patient 9” value was −1.258. Also, the “ncRNA array expression, patient 10” value is −0.9688; the “ncRNA array expression, patient 19” value is −1.202; the “ncRNA array expression, patient 20” value is listed as −1.14; the “ncRNA array expression, patient 21” value is reported as −1.263. Besides, the “ncRNA array expression, patient 22” value is −0.5383; the “ncRNA array expression, patient 23” value is −1.165; the “ncRNA array expression, patient 24” value was −1.154; the “ncRNA array expression, patient 25” value is reported as −0.9916. Further, the “ncRNA array expression, patient 26” value was −0.8776; the “ncRNA array expression, patient 27” value is −1.161; the “ncRNA array expression, patient 28” value was −1.232; the “ncRNA array expression, patient 29” value was −1.077. Moreover, the “ncRNA array expression, patient 30” value is on record as −1.04.
In the case of “SEQ ID NO 60 (ACTAACAGCACTGGAGGGTGTAGTGTTTCCTACTTTATGGATGAGTGTACTGTGGGCTTC; listed as DNA, chemistry not given here; listed as Homo sapiens)”, the “ncRNA array expression, patient 2” value turned out to be 2.776; the “ncRNA array expression, patient 3” value came to 2.279; the “ncRNA array expression, patient 4” value is 2.327; the “ncRNA array expression, patient 5” value is given as 0.8655. Besides, the “ncRNA array expression, patient 6” value is listed as −1.218; the “ncRNA array expression, patient 7” value was 2.958; the “ncRNA array expression, patient 8” value is given as 0.3154; the “ncRNA array expression, patient 9” value is listed as 1.739. Also, the “ncRNA array expression, patient 10” value was 2.002; the “ncRNA array expression, patient 19” value is reported as 0.3888; the “ncRNA array expression, patient 20” value turned out to be 2.119; the “ncRNA array expression, patient 21” value worked out at 0.7491. In addition, the “ncRNA array expression, patient 22” value amounted to 3.236; the “ncRNA array expression, patient 23” value turned out to be 1.416; the “ncRNA array expression, patient 24” value is 1.295; the “ncRNA array expression, patient 25” value was found to be 1.226. Also, the “ncRNA array expression, patient 26” value is given as 1.537; the “ncRNA array expression, patient 27” value came to 1.485; the “ncRNA array expression, patient 28” value came out at 0.6983; the “ncRNA array expression, patient 29” value is reported as 1.398. Further, the “ncRNA array expression, patient 30” value was 0.02973.
With “SEQ ID NO 61 (CATACATTGCCCTCACTAATCAATGGACATTTCAGCATTTCATTACTAATTTTGAGAGAA; listed as DNA, chemistry not given here; listed as Homo sapiens)”, the “ncRNA array expression, patient 2” value is given as 1.244; the “ncRNA array expression, patient 3” value came out at 1.117; the “ncRNA array expression, patient 4” value came out at 1.12; the “ncRNA array expression, patient 5” value turned out to be 3.917. Besides, the “ncRNA array expression, patient 6” value was found to be 0.992; the “ncRNA array expression, patient 7” value is 2.069; the “ncRNA array expression, patient 8” value was 1.86; the “ncRNA array expression, patient 9” value is 1.694. Moreover, the “ncRNA array expression, patient 10” value is given as 3.678; the “ncRNA array expression, patient 19” value stood at 0.6865; the “ncRNA array expression, patient 20” value is on record as −0.03568; the “ncRNA array expression, patient 21” value is 1.984. Moreover, the “ncRNA array expression, patient 22” value was −0.1143; the “ncRNA array expression, patient 23” value is 0.5527; the “ncRNA array expression, patient 24” value came to 3.802; the “ncRNA array expression, patient 25” value is 2.349. Further, the “ncRNA array expression, patient 26” value was determined as 2.817; the “ncRNA array expression, patient 27” value came out at 1.264; the “ncRNA array expression, patient 28” value amounted to 2.585; the “ncRNA array expression, patient 29” value amounted to 3.112. For the same substance, the “ncRNA array expression, patient 30” value was determined as 0.254.
Consider “SEQ ID NO 62 (AATCGTTAATATCATTGATATTAAGTAATTTCCCCACTCTGAGTGAATACTTTGATGATG; listed as DNA, chemistry not given here; listed as Homo sapiens)”, for which the “ncRNA array expression, patient 2” value turned out to be 1.565; the “ncRNA array expression, patient 3” value stood at 1.466; the “ncRNA array expression, patient 4” value was 3.47; the “ncRNA array expression, patient 5” value stood at 1.994. For the same substance, the “ncRNA array expression, patient 6” value is recorded as 0.5751; the “ncRNA array expression, patient 7” value is recorded as 2.152; the “ncRNA array expression, patient 8” value was determined as 0.2609; the “ncRNA array expression, patient 9” value is on record as 0.5801. The “ncRNA array expression, patient 10” value is given as 1.264; the “ncRNA array expression, patient 19” value is given as 1.414; the “ncRNA array expression, patient 20” value was 1.836; the “ncRNA array expression, patient 21” value worked out at 0.6984. Also, the “ncRNA array expression, patient 22” value stood at 0.4968; the “ncRNA array expression, patient 23” value is listed as −0.5784; the “ncRNA array expression, patient 24” value turned out to be 3.5; the “ncRNA array expression, patient 25” value was found to be 3.363. Besides, the “ncRNA array expression, patient 26” value amounted to 2.394; the “ncRNA array expression, patient 27” value was determined as 1.855; the “ncRNA array expression, patient 28” value turned out to be 1.418; the “ncRNA array expression, patient 29” value is 1.3702. In addition, the “ncRNA array expression, patient 30” value was −1.545.
“SEQ ID NO 63 (CTCACACGCACCCTTTCACTGTTTCTTAGTAATTTGTTTGTCTACAGACACAGACGGGAA; listed as DNA, chemistry not given here; listed as Homo sapiens)”: the “ncRNA array expression, patient 2” value is reported as −1.694; the “ncRNA array expression, patient 3” value is reported as −1.565; the “ncRNA array expression, patient 4” value is recorded as −1.396; the “ncRNA array expression, patient 5” value is on record as −1.315. In addition, the “ncRNA array expression, patient 6” value is given as −0.5921; the “ncRNA array expression, patient 7” value was −1.305; the “ncRNA array expression, patient 8” value is listed as −1.26; the “ncRNA array expression, patient 9” value is listed as −1.429. The “ncRNA array expression, patient 10” value is −1.417; the “ncRNA array expression, patient 19” value is −1.154; the “ncRNA array expression, patient 20” value is −1.232; the “ncRNA array expression, patient 21” value is reported as −1.397. Moreover, the “ncRNA array expression, patient 22” value is −0.3562; the “ncRNA array expression, patient 23” value is on record as −0.04699; the “ncRNA array expression, patient 24” value is listed as −1.093; the “ncRNA array expression, patient 25” value was −2.099. The “ncRNA array expression, patient 26” value is listed as −2.008; the “ncRNA array expression, patient 27” value is listed as −1.525; the “ncRNA array expression, patient 28” value is on record as −1.601; the “ncRNA array expression, patient 29” value is on record as −1.862. Further, the “ncRNA array expression, patient 30” value came to 1.622.
